Results as given in patent US20250101013A1, “FUNCTIONALIZED AMINOTHIAZOLES” (LEADXPRO AG, priority 2022, published 2025).

How the values were obtained:
Format in all cases: cell-based
Settings in all cases: HEK293 cells expressing recombinant human receptor
human A2B receptor = human A2B receptor (Homo sapiens (Human), UniProt P29275); test: Intracellular cAMP functional assay (HTRF), A2B
Procedure: (§1) Compound activity in human adenosine receptors A2A, A2B, A1, and A3 was measured in this functional cellular assay using an HTRF kit (Perkin Elmer). […] Dose response curves were performed in parallel with the reference compounds. The reference compounds used for A2A, A2B, A1, and A3, were respectively NECA, ZM241385, DPCPX, MRS. 12 μl of cells were mixed with 6 μl of the test compound at increasing concentrations and then incubated 10 min. Thereafter 6 μl of the reference agonist was added at a final concentration corresponding to the historical EC80. The plates were then incubated for 30 min at room temperature. After addition of the lysis buffer and 1 hour incubation, cAMP concentrations were estimated, according to the manufacturer specification, with the HTRF kit. The results showing functional activity of embodied compounds on adenosine receptors are shown below in Table 1.

human A1 receptor = human A1 receptor (Homo sapiens (Human), UniProt P30542); test: Intracellular cAMP functional assay (HTRF), A1
Procedure: as §1

human A3 receptor = human A3 receptor (Homo sapiens (Human), UniProt P0DMS8); test: Intracellular cAMP functional assay (HTRF), A3
Procedure: as §1

human A2A receptor = human A2A receptor (Homo sapiens (Human), UniProt P29274); test: Intracellular cAMP functional assay (HTRF), A2A
Procedure: as §1

Chain of human A2B receptor (P29275 whole entry): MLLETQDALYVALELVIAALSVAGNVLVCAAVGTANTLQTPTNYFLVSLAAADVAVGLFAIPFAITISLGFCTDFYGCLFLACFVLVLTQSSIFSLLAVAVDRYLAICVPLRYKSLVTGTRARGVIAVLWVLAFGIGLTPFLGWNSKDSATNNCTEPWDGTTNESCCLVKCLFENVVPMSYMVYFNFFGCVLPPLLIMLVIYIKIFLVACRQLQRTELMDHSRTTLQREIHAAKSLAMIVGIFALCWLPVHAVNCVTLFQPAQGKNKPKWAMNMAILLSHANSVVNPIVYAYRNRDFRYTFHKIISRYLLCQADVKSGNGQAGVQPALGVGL
Chain of human A3 receptor (P0DMS8 whole entry): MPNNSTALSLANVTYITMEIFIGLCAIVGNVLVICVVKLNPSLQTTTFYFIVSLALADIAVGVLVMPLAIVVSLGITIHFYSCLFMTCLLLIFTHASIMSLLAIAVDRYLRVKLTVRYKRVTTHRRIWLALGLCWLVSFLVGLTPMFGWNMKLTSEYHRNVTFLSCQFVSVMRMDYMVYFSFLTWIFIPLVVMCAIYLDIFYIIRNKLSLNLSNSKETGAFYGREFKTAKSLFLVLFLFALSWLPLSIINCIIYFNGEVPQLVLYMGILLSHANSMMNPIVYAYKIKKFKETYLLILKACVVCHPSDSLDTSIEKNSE
Chain of human A1 receptor (P30542 whole entry): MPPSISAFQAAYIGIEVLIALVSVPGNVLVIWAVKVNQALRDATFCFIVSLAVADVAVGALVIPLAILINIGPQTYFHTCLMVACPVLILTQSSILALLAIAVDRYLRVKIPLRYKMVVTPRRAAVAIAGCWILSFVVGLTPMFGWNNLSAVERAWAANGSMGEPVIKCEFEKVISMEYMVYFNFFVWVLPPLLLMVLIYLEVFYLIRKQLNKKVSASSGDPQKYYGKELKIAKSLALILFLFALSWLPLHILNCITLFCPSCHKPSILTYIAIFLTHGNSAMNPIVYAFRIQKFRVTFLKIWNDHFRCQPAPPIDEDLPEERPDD
Chain of human A2A receptor (P29274 whole entry): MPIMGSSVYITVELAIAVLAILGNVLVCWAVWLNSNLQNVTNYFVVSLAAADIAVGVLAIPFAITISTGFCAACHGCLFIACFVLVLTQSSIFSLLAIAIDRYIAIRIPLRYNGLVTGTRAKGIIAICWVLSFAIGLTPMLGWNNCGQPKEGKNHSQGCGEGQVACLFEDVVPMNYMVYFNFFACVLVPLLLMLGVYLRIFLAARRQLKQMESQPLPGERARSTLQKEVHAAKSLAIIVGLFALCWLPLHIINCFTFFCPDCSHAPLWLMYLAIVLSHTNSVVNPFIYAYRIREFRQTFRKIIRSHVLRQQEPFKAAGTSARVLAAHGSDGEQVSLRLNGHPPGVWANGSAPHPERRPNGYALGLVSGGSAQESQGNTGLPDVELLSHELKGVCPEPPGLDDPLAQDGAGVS

Row | SMILES | EC50 (human A2B receptor) [nM] | EC50 (human A1 receptor) [nM] | EC50 (human A3 receptor) [nM] | EC50 (human A2A receptor) [nM]
1 | Cc1nccn1-c1sc(Nc2nc[nH]n2)nc1-c1cccc(C#N)c1 [Compound 9, 3-[5-(2-Methyl-1H-Imidazol-1-Yl)-2-[(1H-1,2,4-Triazol-3-Yl)Amino]-1,3-Thiazol-4-Yl]Benzonitrile] | 3.3 | 145 | 2350 | > 10000
2 | CCc1nccn1-c1sc(Nc2n[nH]c(C)n2)nc1-c1cccc(C#N)c1 [Compound 16, 3-[5-(2-Ethyl-1H-Imidazol-1-Yl)-2-[(5-Methyl-1H-1,2,4-Triazol-3-Yl)Amino]-1,3-Thiazol-4-Yl]Benzonitrile] | 2.2 | – | – | 61
3 | Cc1cc(-c2sc(Nc3n[nH]c(C4CC4)n3)nc2-c2cccc(C#N)c2)ccn1 [Compound 7, 3-{2-[(5-Cyclopropyl-1H-1,2,4-Triazol-3-Yl)Amino]-5-(2-Methylpyridin-4-Yl)-1,3-Thiazol-4-Yl}Benzonitrile] | 1.4 | 1.7 | 1740 | 24.4
4 | N#Cc1cccc(-c2nc(Nc3n[nH]c(C4CC4)n3)sc2-c2ccncc2Cl)c1 [Compound 5, 3-[5-(3-Chloropyridin-4-Yl)-2-[(5-Cyclopropyl-1H-1,2,4-Triazol-3-Yl)Amino]-1,3-Thiazol-4-Yl]Benzonitrile] | 0.76 | 2.3 | 2350 | 478
5 | Cc1cncnc1-c1sc(Nc2n[nH]c(C3CC3)n2)nc1-c1cccc(C#N)c1 [Compound 27, 3-{2-[(5-Cyclopropyl-1H-1,2,4-Triazol-3-Yl)Amino]-5-(5-Methylpyrimidin-4-Yl)-1,3-Thiazol-4-Yl}Benzonitrile] | 1.7 | 20.7 | > 30000 | –
6 | N#Cc1cccc(-c2nc(Nc3n[nH]c(C4CC4)n3)sc2-c2ccncn2)c1 [Compound 24, 3-{2-[(5-Cyclopropyl-1H-1,2,4-Triazol-3-Yl)Amino]-5-(Pyrimidin-4-Yl)-1,3-Thiazol-4-Yl}Benzonitrile] | 2.3 | 24.1 | > 30000 | –
7 | N#Cc1cccc(-c2nc(Nc3nc[nH]n3)sc2-n2ccnc2CO)c1 [Compound 19, 3-{5-[2-(Hydroxymethyl)-1H-Imidazol-1-Yl]-2-[(1H-1,2,4-Triazol-3-Yl)Amino]-1,3-Thiazol-4-Yl}Benzonitrile] | 2.01 | 885 | > 3400 | 5760
8 | Cc1cc(-c2sc(Nc3n[nH]c(C4CC4)n3)nc2-c2cccc(C#N)c2)c(C)cn1 [Compound 4, 3-{2-[(5-Cyclopropyl-1H-1,2,4-Triazol-3-Yl)Amino]-5-(2,5-Dimethylpyridin-4-Yl)-1,3-Thiazol-4-Yl}Benzonitrile] | 0.99 | 16.4 | > 20000 | 3890
9 | Cn1cc(-c2sc(Nc3n[nH]c(C4CC4)n3)nc2-c2cccc(C#N)c2)ccc1=O [Compound 29, 3-{2-[(5-Cyclopropyl-1H-1,2,4-Triazol-3-Yl)Amino]-5-(1-Methyl-6-Oxo-1,6-Dihydropyridin-3-Yl)-1,3-Thiazol-4-Yl}Benzonitrile] | 0.4 | 4.8 | > 30000 | 1.1
10 | Cc1nccc(-c2sc(Nc3n[nH]c(C4CC4)n3)nc2-c2cccc(C#N)c2)c1C [Compound 6, 3-{2-[(5-Cyclopropyl-1H-1,2,4-Triazol-3-Yl)Amino]-5-(2,3-Dimethylpyridin-4-Yl)-1,3-Thiazol-4-Yl}Benzonitrile] | 0.84 | 1.2 | 2060 | 206
11 | Cc1nccn1-c1sc(Nc2n[nH]c(C3CC3)n2)nc1-c1cc(C#N)ccc1F [Compound 18, 3-{2-[(5-Cyclopropyl-1H-1,2,4-Triazol-3-Yl)Amino]-5-(2-Methyl-1H-Imidazol-1-Yl)-1,3-Thiazol-4-Yl}-4-Fluorobenzonitrile] | 33.4 | – | – | > 10000
12 | Cc1cc(-c2sc(Nc3n[nH]c(CO)n3)nc2-c2cccc(C#N)c2)c(C)cn1 [Compound 14, 3-[5-(2,5-Dimethylpyridin-4-Yl)-2-{[5-(Hydroxymethyl)-1H-1,2,4-Triazol-3-Yl]Amino}-1,3-Thiazol-4-Yl]Benzonitrile] | 3 | 36.1 | > 20000 | > 10000
13 | Cc1cnccc1-c1sc(Nc2nc[nH]n2)nc1-c1cccc(C#N)c1 [Compound 22, 3-{5-(3-Methylpyridin-4-Yl)-2-[(1H-1,2,4-Triazol-3-Yl)Amino]-1,3-Thiazol-4-Yl}Benzonitrile] | 0.6 | 2.3 | > 30000 | –
14 | N#Cc1cccc(-c2nc(Nc3n[nH]c(C4CC4)n3)sc2-c2ccncc2)c1 [Compound 26, 3-{2-[(5-Cyclopropyl-1H-1,2,4-Triazol-3-Yl)Amino]-5-(Pyridin-4-Yl)-1,3-Thiazol-4-Yl}Benzonitrile] | 0.7 | 0.8 | > 30000 | –
15 | Cc1cnccc1-c1sc(Nc2n[nH]c(C3CC3)n2)nc1-c1cccc(C#N)c1 [Compound 3, 3-{2-[(5-Cyclopropyl-1H-1,2,4-Triazol-3-Yl)Amino]-5-(3-Methylpyridin-4-Yl)-1,3-Thiazol-4-Yl}Benzonitrile] | 0.38 | 1.8 | > 20000 | 119
16 | Cc1nccn1-c1sc(Nc2n[nH]c(C3CC3)n2)nc1-c1cccc(C#N)c1 [Compound 8, 3-{2-[(5-Cyclopropyl-1H-1,2,4-Triazol-3-Yl)Amino]-5-(2-Methyl-1H-Imidazol-1-Yl)-1,3-Thiazol-4-Yl}Benzonitrile] | 2.9 | 107 | > 20000 | > 10000
17 | N#Cc1cccc(-c2nc(Nc3n[nH]c(C4CC4)n3)sc2-c2ccncc2F)c1 [Compound 2, 3-{2-[(5-cyclopropyl-1H-1,2,4-triazol-3-yl)amino]-5-(3-fluoropyridin-4-yl)-1,3-thiazol-4-yl}benzonitrile] | 0.3 | 0.78 | > 20000 | 78.9
18 | N#Cc1cccc(-c2nc(Nc3n[nH]c(C4CC4)n3)sc2-n2ccnc2CO)c1 [Compound 17, 3-{2-[(5-Cyclopropyl-1H-1,2,4-Triazol-3-Yl)Amino]-5-[2-(Hydroxymethyl)-1H-Imidazol-1-Yl]-1,3-Thiazol-4-Yl}Benzonitrile] | 2.4 | – | – | 100
19 | N#Cc1cccc(-c2nc(Nc3n[nH]c(C4CC4)n3)sc2-c2ccnnc2)c1 [Compound 25, 3-{2-[(5-Cyclopropyl-1H-1,2,4-Triazol-3-Yl)Amino]-5-(Pyridazin-4-Yl)-1,3-Thiazol-4-Yl}Benzonitrile] | 2.4 | 2.6 | > 30000 | –
20 | Cc1nc(Nc2nc(-c3cccc(C#N)c3)c(-n3ccnc3CO)s2)n[nH]1 [Compound 21, 3-{5-[2-(Hydroxymethyl)-1H-Imidazol-1-Yl]-2-[(5-Methyl-1H-1,2,4-Triazol-3-Yl)Amino]-1,3-Thiazol-4-Yl}Benzonitrile] | 1.64 | > 30000 | > 30000 | 6980
21 | Cc1cnncc1-c1sc(Nc2n[nH]c(C3CC3)n2)nc1-c1cccc(C#N)c1 [Compound 23, 3-{2-[(5-Cyclopropyl-1H-1,2,4-Triazol-3-Yl)Amino]-5-(5-Methylpyridazin-4-Yl)-1,3-Thiazol-4-Yl}Benzonitrile] | 6.7 | 115 | > 30000 | –
22 | Cc1cc(-c2sc(Nc3n[nH]c(C)n3)nc2-c2cccc(C#N)c2)c(C)cn1 [Compound 13, 3-[5-(2,5-Dimethylpyridin-4-Yl)-2-[(5-Methyl-1H-1,2,4-Triazol-3-Yl)Amino]-1,3-Thiazol-4-Yl]Benzonitrile] | 2.8 | 65 | > 20000 | > 10000
23 | CCc1nc(Nc2nc(-c3cccc(C#N)c3)c(-n3ccnc3CO)s2)n[nH]1 [Compound 20, 3-{2-[(5-Ethyl-1H-1,2,4-Triazol-3-Yl)Amino]-5-[2-(Hydroxymethyl)-1H-Imidazol-1-Yl]-1,3-Thiazol-4-Yl}Benzonitrile] | 1.26 | 360 | > 30000 | 3410
